Reference: ChEMBL document CHEMBL3098114, “Combining the tail and the ring approaches for obtaining potent and isoform-selective carbonic anhydrase inhibitors: solution and X-ray crystallographic studies” (Bioorg Med Chem, 2014)

Assays:
[1] = target: Carbonic anhydrase 7 (Homo sapiens, UniProt P43166); test: Inhibition of human CA7 preincubated for 15 mins by stopped-flow CO2 hydration method
[2] = target: Carbonic anhydrase 2 (Homo sapiens, UniProt P00918); test: Inhibition of human CA2 cytosolic isoform preincubated for 15 mins by stopped-flow CO2 hydration method
[3] = target: Carbonic anhydrase 12 (Homo sapiens, UniProt O43570)
[4] = target: Carbonic anhydrase 9 (Homo sapiens, UniProt Q16790)
[5] = target: Carbonic anhydrase 3 (Homo sapiens, UniProt P07451)
[6] = target: Carbonic anhydrase 1 (Homo sapiens, UniProt P00915)
[7] = target: Carbonic anhydrase 13 (Homo sapiens, UniProt Q8N1Q1)
Sequence of Carbonic anhydrase 13 (Q8N1Q1 whole entry): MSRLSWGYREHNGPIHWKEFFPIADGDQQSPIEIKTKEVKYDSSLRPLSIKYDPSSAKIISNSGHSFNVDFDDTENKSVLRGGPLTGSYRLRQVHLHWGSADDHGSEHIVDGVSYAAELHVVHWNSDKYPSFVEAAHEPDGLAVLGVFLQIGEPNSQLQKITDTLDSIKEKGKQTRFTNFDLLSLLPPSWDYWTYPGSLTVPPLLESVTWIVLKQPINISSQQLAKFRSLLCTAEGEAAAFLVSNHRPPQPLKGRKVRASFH

Sequence of Carbonic anhydrase 3 (P07451 whole entry): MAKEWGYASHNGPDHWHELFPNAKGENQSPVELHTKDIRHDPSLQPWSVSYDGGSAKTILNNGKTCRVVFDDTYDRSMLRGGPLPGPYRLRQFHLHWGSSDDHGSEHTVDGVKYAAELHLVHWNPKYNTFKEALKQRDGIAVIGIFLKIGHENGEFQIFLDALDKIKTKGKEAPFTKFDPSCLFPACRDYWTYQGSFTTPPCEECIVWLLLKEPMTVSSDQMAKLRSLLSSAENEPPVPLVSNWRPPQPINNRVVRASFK
Sequence of Carbonic anhydrase 7 (P43166 whole entry, canonical isoform): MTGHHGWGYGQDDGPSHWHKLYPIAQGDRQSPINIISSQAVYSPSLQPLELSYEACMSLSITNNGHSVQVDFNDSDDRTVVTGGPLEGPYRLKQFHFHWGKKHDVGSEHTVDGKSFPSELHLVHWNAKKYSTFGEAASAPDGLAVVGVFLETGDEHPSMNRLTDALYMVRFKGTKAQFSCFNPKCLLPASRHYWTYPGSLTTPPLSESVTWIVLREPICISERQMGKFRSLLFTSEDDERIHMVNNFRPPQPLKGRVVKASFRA
Sequence of Carbonic anhydrase 12 (O43570 whole entry): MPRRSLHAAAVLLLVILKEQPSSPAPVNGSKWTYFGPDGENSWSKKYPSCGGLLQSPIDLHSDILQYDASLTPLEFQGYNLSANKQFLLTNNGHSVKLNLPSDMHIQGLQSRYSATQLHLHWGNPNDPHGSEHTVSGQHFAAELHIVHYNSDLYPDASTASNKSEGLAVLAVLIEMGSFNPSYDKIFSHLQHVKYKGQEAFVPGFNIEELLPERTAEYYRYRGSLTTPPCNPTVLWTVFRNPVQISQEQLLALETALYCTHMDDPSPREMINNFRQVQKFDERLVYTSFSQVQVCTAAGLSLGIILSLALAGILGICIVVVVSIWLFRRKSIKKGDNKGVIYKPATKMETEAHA
Sequence of Carbonic anhydrase 1 (P00915 whole entry): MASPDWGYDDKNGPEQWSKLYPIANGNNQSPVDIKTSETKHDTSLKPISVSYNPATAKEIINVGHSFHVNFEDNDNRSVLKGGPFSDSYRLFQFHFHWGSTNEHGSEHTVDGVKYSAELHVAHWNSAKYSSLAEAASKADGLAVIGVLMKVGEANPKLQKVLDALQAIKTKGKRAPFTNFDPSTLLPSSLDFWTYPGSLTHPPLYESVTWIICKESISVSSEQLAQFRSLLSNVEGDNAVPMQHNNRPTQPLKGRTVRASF

Row | Ki [1] [nM] | Ki [2] [nM] | Ki [3] [nM] | Ki [4] [nM] | Ki [5] [nM] | Ki [6] [nM] | SMILES | Ki [7] [nM]
1 | 135 | 253 | 114 | 279 | > 100000 | 24700 | Nc1ccc(S(N)(=O)=O)nc1 | 
2 | 30 |  |  |  | > 100000 |  | Cc1ccc(S(=O)(=O)NC(=O)Nc2ccc(S(N)(=O)=O)nc2)cc1 | 
3 | 6.4 |  |  |  | > 100000 |  | Cc1ccc(S(=O)(=O)NC(=O)Nc2ccc(S(N)(=O)=O)cc2)cc1 | 

Row | SMILES | Ki [1] [nM] | Ki [2] [nM] | Ki [3] [nM] | Ki [4] [nM] | Ki [5] [nM] | Ki [6] [nM] | Ki [7] [nM]
4 | Nc1ccc(S(N)(=O)=O)cc1 [SULFANILAMIDE] |  |  |  |  | > 100000 |  | 35
